In patent publication US4659717A, “Dihydropyridines useful in the treatment of angina and stroke” (Eli Lilly and Company, priority 1985, dated 1987):

test system: Dog Coronary Artery; test: Dog coronary artery test: relaxation of KCl-contracted coronary artery rings; type: cell-based; settings: Canis lupus familiaris, coronary artery rings contracted with 50 mM KCl, 37° C.; IC50 = 50% relaxation; mean values, probit analysis
Method: Mongrel dogs of either sex and weighing 15 to 30 kg were anesthetized with pentobarbital (35 mg/kg). Each heart was quickly removed through a right thoracotomy and placed in Kreb's bicarbonate solution of the following composition (mM/L): NaCl, 118.2; KCl, 4.6; CaCl2.2H2 O, 1.6; KH2 PO4, 1.2; MgSO4.7H2 O, 1.2; NaHCO3, 24.8; and dextrose, 10.0. The medium was kept at room temperature and saturated with 95% O2 /5% CO2. The left anterior descending and circumflex coronary arteries were isolated and used either immediately or stored overnight at 5° C. Arteries were cut into rings approximately 2 to 3 mm wide, placed on 2 L-shaped hooks and mounted in a 10 ml organ bath by attaching one hook to a stationary glass rod and the other hook to a force-displacement transducer. Tissue medium consisted of Kreb's bicarbonate solution maintained at 37° C. and bubbled with 95 % O2 /5% CO2. Artery rings were equilibrated for 1-2 hours under a resting tension of 3 g. Tissue medium was then changed to one containing 50 mM KCl and 72.8 mM NaCl but otherwise identical to Kreb's bicarbonate solution. After tissues achieved a steady state contractile tension (1-2 hours) a given test agent was added to each bath and concentration-response curves determined. […] At the end of the concentration-response curve, tissue medium was changed to one identical to the 50 mM KCl buffer but containing 2.5 mM EGTA and no CaCl2.2H2 O to obtain complete relaxation of the tissue. Percent relaxation was then determined for each concentration and values producing 50% relaxation (IC50) were estimated using a probit analysis.

Row | Structure (SMILES) | IC50 [nM]
1 | CCOC(=O)C1=C(C)NC(C)=C(C(=O)OCC)C1c1csc2cccnc12 [Example 11, 1,4-Dihydro-2,6-dimethyl-4-thieno[3,2-b]pyridin-3-yl-3,5-pyridinedicarboxylic acid, diethyl ester] | 126
2 | CCOC(=O)C1=C(C)NC(C)=C(C(=O)OCC)C1c1csc2cccc([N+](=O)[O-])c12 [Example 28, 1,4-Dihydro-2,6-dimethyl-4-(4-nitrobenzo[b]thien-3-yl)-3,5-pyridinecarboxylic acid, diethyl ester] | 155
3 | COC(=O)C1=C(C)NC(C)=C(C(=O)OC(C)c2ccccc2)[C@@H]1c1csc2ccncc12 (stereo partly drawn) [Example 47, (R)-1,4-Dihydro-2,6-dimethyl-4-thieno[3,2-c]pyridin-3-yl-3,5-pyridinedicarboxylic acid, methyl 1-phenylethyl ester] | 49
4 | COC(=O)C1=C(C)NC(C)=C(C(=O)OCCC#N)C1c1csc2ccccc12 (centres unmarked) [Example 35, 4-Benzo[b]thien-3-yl-1,4-dihydro-2,6-dimethyl-3,5-pyridinecarboxylic acid, 2-cyanoethyl methyl ester] | 251
5 | CCOC(=O)C1=C(C)NC(C)=C(C(=O)OCC)C1c1csc2ccc([N+](=O)[O-])cc12 [Example 26, 1,4-Dihydro-2,6-dimethyl-4-(5-nitrobenzo[b]thien-3-yl)-3,5-pyridinedicarboxylic acid, diethyl ester] | 229
6 | CCOC(=O)C1=C(C)NC(C)=C(C(=O)OCC)C1c1csc2ncccc12 [Example 13, 1,4-Dihydro-2,6-dimethyl-4-thieno[2,3-b]pyridin-3-yl-3,5-pyridinedicarboxylic acid, diethyl ester] | 871
7 | CCC(C)OC(=O)C1=C(C)NC(C)=C(C(=O)OC)[C@H]1c1csc2ccncc12 (stereo partly drawn) [Example 42, (R)-1,4-Dihydro-2,6-dimethyl-4-thieno[3,2-c]pyridin-3-yl-3,5-pyridinedicarboxylic acid, methyl 1-methylpropyl ester] | 81.3
8 | COC(=O)C1=C(C)NC(C)=C(C(=O)OCC2CC2)C1c1csc2cccnc12 (centres unmarked) [Example 46, 1,4-Dihydro-2,6-dimethyl-4-thieno[3,2-b]pyridin-3-yl-3,5-pyridinedicarboxylic acid, cyclopropylmethyl methyl ester] | 83.2
9 | COCCOC(=O)C1=C(C)NC(C)=C(C(=O)OC(C)C)C1c1csc2ccncc12 (centres unmarked) [Example 37, 1,4-Dihydro-2,6-dimethyl-4-thieno[3,2-c]pyridin-3-yl-3,5-pyridinedicarboxylic acid, 2-methoxyethyl 1-methylethyl ester] | 166
10 | CCOC(=O)C1=C(C)NC(C)=C(C(=O)OC(C)C)C1c1csc2ccncc12 (centres unmarked) [Example 17, 1,4-Dihydro-2,6-dimethyl-4-thieno[3,2-c]pyridin-3-yl-3,5-pyridinedicarboxylic acid, 3-ethyl 5-isopropyl ester] | 83.2
11 | COC(=O)C1=C(C)NC(C)=C(C(=O)OCC2CC2)C1c1csc2ccncc12 (centres unmarked) [Example 51, 1,4-Dihydro-2,6-dimethyl-4-thieno[3,2-c]pyridin-3-yl-3,5-pyridinedicarboxylic acid, cyclopropylmethyl methyl ester] | 7.59
12 | COCCOC(=O)C1=C(C)NC(C)=C(C(=O)OCCOC)C1c1csc2ccncc12 [Example 8, 1,4-Dihydro-2,6-dimethyl-4-thieno[3,2-c]pyridin-3-yl-3,5-pyridinedicarboxylic acid, bis(2-methoxyethyl)ester] | 501
13 | CCOC(=O)C1=C(C)NC(C)=C(C(=O)OCC)C1c1csc2cc([N+](=O)[O-])ccc12 [Example 27, 1,4-Dihydro-2,6-dimethyl-4-(6-nitrobenzo[b]thien-3-yl)-3,5-pyridinedicarboxylic acid, diethyl ester] | 204
14 | COCCOC(=O)C1=C(C)NC(C)=C(C(=O)OC(C)C)C1c1csc2ccccc12 (centres unmarked) [Example 39, 4-Benzo[b]thien-3-yl-1,4-dihydro-2,6-dimethyl-3,5-pyridinedicarboxylic acid, 2-methoxyethyl 1-methylethyl ester] | 891
15 | CCCOC(=O)C1=C(C)NC(C)=C(C(=O)OCCC)C1c1csc2ccncc12 [Example 10, 1,4-Dihydro-2,6-dimethyl-4-thieno[3,2-c]pyridin-3-yl-3,5-pyridinedicarboxylic acid, dipropyl ester] | 251
16 | CCOC(=O)C1=C(C)NC(C)=C(C(=O)OCC)C1c1c(Br)sc2ccccc12 [Example 23, 4-(2-Bromobenzo[b]thien-3-yl)-1,4-dihydro-2,6-dimethyl-3,5-pyridinedicarboxylic acid, diethyl ester] | 7080
17 | CC[C@H](C)OC(=O)C1=C(C)NC(C)=C(C(=O)OC)C1c1csc2ccncc12 (stereo partly drawn) [Example 40, 1,4-Dihydro-2,6-dimethyl-4-thieno[3,2-c]pyridin-3-yl-3,5-pyridinedicarboxylic acid, methyl(S)-1-methylpropyl ester] | 33.1
18 | COC(=O)C1=C(C)NC(C)=C(C(=O)OCC2CC2)C1c1csc2cnccc12 (centres unmarked) [Example 44, 1,4-Dihydro-2,6-dimethyl-4-thieno[2,3-c]pyridin-3-yl-3,5-pyridinedicarboxylic acid, cyclopropylmethyl methyl ester] | 70.8
19 | C#CCOC(=O)C1=C(C)NC(C)=C(C(=O)OC)C1c1csc2ccncc12 (centres unmarked) [Example 48, 1,4-Dihydro-2,6-dimethyl-4-thieno[3,2-c]pyridin-3-yl-3,5-pyridinedicarboxylic acid, methyl 2-propynyl ester] | 91.2

same assay, conditions: coronary artery rings contracted with 50 mM KCl, 37° C.; IC50 = 50% relaxation; mean values, probit analysis

Row | Structure (SMILES) | -log IC50
20 | CCC(C)OC(=O)C1=C(C)NC(C)=C(C(=O)OC)[C@@H]1c1csc2ccccc12 (stereo partly drawn) [Example 36, (S)-4-benzo[b]thien-3-yl-1,4-dihydro-2,6-dimethyl-3,5-pyridinedicarboxylicacid, methyl 1-methylpropyl ester] | 5.7
